Laboratory results published in patent US12565497B2 (Hoffmann-La Roche Inc., priority 2020, dated 2026).

Biological target: Recombinant human Mat2a (Homo sapiens (Human), UniProt P31153)
Assay: Determination of Mat2A activity (384 well absorbance-based assay, Biomol Green)
Assay type: biochemical
Conditions: 12.5 nM Mat2A, 100 μM ATP and Methionine, 2% DMSO, 120 minutes at RT, absorbance at 635 nm; read-out: MAT2A_LEC IC50 (uM) (Num)
Summary of the method: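 Recombinant human Mat2A (12.5 nM) preincubated 15 min at RT with compound (10 μM to 508 pM) in 50 mM HEPES pH 7.5, 50 mM KCl, 50 mM MgCl2, 0.01% Tween 20, 10 mM DTT, 2% DMSO. Reaction started with ATP and methionine (100 μM each), run 120 min at RT, then stopped with Biomol Green; A635 read after 30 min.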

Recombinant human Mat2a, sequence (P31153 whole entry): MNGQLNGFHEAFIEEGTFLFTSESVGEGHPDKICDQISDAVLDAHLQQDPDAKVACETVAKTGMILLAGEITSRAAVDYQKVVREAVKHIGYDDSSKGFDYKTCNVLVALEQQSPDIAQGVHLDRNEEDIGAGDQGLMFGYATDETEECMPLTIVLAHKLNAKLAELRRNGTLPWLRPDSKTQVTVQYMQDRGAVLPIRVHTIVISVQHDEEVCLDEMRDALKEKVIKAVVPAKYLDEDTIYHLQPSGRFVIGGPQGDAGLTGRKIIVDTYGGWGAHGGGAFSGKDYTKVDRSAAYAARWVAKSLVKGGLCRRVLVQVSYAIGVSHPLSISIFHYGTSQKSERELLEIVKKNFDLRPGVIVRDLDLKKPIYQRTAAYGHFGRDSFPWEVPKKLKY

Structure (SMILES)	IC50 [µM]
CN=S(C)(=O)c1ccc2[nH]nc(C3CC3)c2c1-c1ccc(S(C)(=O)=O)c(C)c1 (stereo not drawn) [Example 113, [3-cyclopropyl-4-(3-methyl-4-methylsulfonyl-phenyl)-1H-indazol-5-yl]-methyl-methylimino-oxo-λ^6-sulfane]	0.31
CNS(=O)(=O)c1ccc2[nH]nc(C3CC3)c2c1-c1ccc(S(C)(=O)=O)c(C)c1 [Example 115, 3-cyclopropyl-N-methyl-4-(3-methyl-4-methylsulfonyl-phenyl)-1H-indazole-5-sulfonamide]	0.03
Cc1cc(-c2c(C(N)=O)ncc3[nH]nc(OC(F)F)c23)ccc1S(=O)(=O)C1CC1 [Example 116, 4-(4-cyclopropylsulfonyl-3-methyl-phenyl)-3-(difluoromethoxy)-1H-pyrazolo[3,4-c]pyridine-5-carboxamide]	< 0.013

Continued, values first:

IC50 [µM]	Structure (SMILES)
0.03	Cc1cc(-c2c(S(=O)(=O)N(C)C)ccc3[nH]nc(C4CC4)c23)ccc1S(C)(=O)=O [Example 114, 3-cyclopropyl-N,N-dimethyl-4-(3-methyl-4-methylsulfonyl-phenyl)-1H-indazole-5-sulfonamide]
< 0.013	Cc1cc(-c2c(S(=O)(=O)C3CC3)ccc3[nH]nc(OC(F)F)c23)ccc1S(C)(=O)=O [Example 118, 5-cyclopropylsulfonyl-3-(difluoromethoxy)-4-(3-methyl-4-methylsulfonyl-phenyl)-1H-indazole]
0.02	Cc1cc(-c2c(S(C)(=O)=O)ccc3[nH]nc(OC(F)F)c23)c(F)cc1S(C)(=O)=O [Example 119, 3-(difluoromethoxy)-4-(2-fluoro-5-methyl-4-methylsulfonyl-phenyl)-5-methylsulfonyl-1H-indazole]
